According to paper PMC9686653, “Bioengineered Nisin A Derivatives Display Enhanced Activity against Clinical Neonatal Pathogens” (Antibiotics, 2022):
Entries after “also recorded” stand apart in the source; their conditions may differ. Marks after values point to notes of the source that are not given here. Where no end group is shown, it is not given here.

Assays:
S. capitis AV80 = assay: Time-kill curve analysis; format: cell-based, Staphylococcus capitis; conditions: nisin peptides […] (1/4 MIC), ampicillin 3.75 µg/mL (1/4 MIC); re-growth after 6 h
Experimental: The means and standard deviations of three independent determinations are presented.
During incubation, 100µL of each sample was taken at 0, 2, 4, 6 and 24 h. Cell growth was assessed by performing viable cell counts by diluting cultures in PBS solution and enumeration on TSBYE plates. Synergism was defined as ≥2 log10 CFU/mL reduction with the combination of antimicrobials relative to either antimicrobial alone after 24 h. A 1–2 log10 reduction in CFU/mL was defined as an additive effect and an increase or decrease of <1 log10 was defined as an indifferent effect. An antagonistic effect was defined as >2 log10 increase in CFU/mL after 24 h [28]. Experiments were performed in triplicate.

S. agalactiae strains = assay: Broth MIC assay, summary over isolates; format: cell-based, Streptococcus agalactiae; conditions: four of the five S. agalactiae strains; from MIC
Experimental: (§1) MIC determinations were carried out in triplicate in 96-well microtiter plates (Sarstedt, Newton, NC, USA) as previously described. Initially, 200µL of 1% bovine serum albumin (BSA) (Sigma-Aldrich, St. Louis, MO, USA) (in PBS) was added to the plates which were incubated at 37 °C for 30 min. The solution was removed, plates were washed with 200 µL PBS and then air dried in a laminar flow hood. Target strains (Streptococcus agalactiae, Staphylococcus capitis and Lactococcus lactis) were grown overnight in suitable media under appropriate conditions and were subsequently sub-cultured into fresh broth and allowed to grow to an optical density of ~0.5 (OD600). The culture was then diluted to a final concentration of 10^5 CFU mL^−1 in a volume of 1 mL. The peptides were resuspended in appropriate media to a stock concentration of […] (S. agalactiae and S. capitis strains) and […] (L. lactis strains). Nisin A and nisin derivatives were adjusted to a starting concentration of 15 µM (S. agalactiae and S. capitis strains) or 5 µM (L. lactis strains). […] An aliquot of 100 µL of peptides and or antibiotics were added to the first well, mixed and then 2-fold serial dilutions of each peptide were made in TSBYE broth. Then, 100 µL of target strain was added to each test well, and the plates were incubated at 30 °C or 37 °C for 16 h. The MIC was read as the lowest peptide concentration causing inhibition of visible growth. Experiments were performed in triplicate.

S. capitis BA06 = assay: Broth MIC assay; format: cell-based, Staphylococcus capitis; conditions: from MIC
Experimental: as §1

[1] = tested on: nisin resistance protein (NSR); conditions: cited from earlier work
S. capitis strains = assay: Broth MIC assay, summary over isolates; format: cell-based, Staphylococcus capitis; conditions: some strains of S. capitis; purified peptides
Experimental: as §1, with “Then, 100 µL of target strain was added to each test well, and the plates were incubated at 30 °C or 37 °C for 16 h.” left out, “Experiments were performed in triplicate.” left out

S. agalactiae CIT 85 = assay: Broth MIC assay; format: cell-based, Streptococcus agalactiae; conditions: from MIC
Experimental: as §1

S. capitis AY41 = assay: microbe, parasite or virus in culture; format: cell-based, Staphylococcus capitis
Experimental: as §1

[2] = tested on: clinical isolates of S. agalactiae (n = 5) and S. capitis (n = 5); assay: Deferred antagonism agar-based assay; format: cell-based, Streptococcus agalactiae, Staphylococcus capitis; conditions: pathogenic indicators, n = 10; listed as nisin PV
Experimental: All plates were supplemented with sub-inhibitory concentration (10 µg/L) of nisin in the form of nisaplin to ensure induction of the nisin mutants.
Site-saturation mutagenesis of three codons, including threonine, lysine and methionine, at positions 2, 12 and 17 of the nisA gene, was carried out as described previously. Briefly, pDF23 (pCI372-PV) was used as a template and oligonucleotides, NisT2deg-FOR and REV, NisK12deg-FOR and REV and Nis17deg-FOR and REV, containing an NNK codon potentially encoding for all twenty standard amino acids. Deferred antagonism agar-based assays were employed to assess the bioactivity of the nisin derivatives (PV, K12X-PV, T2X-PV, and M17X-PV) produced by each strain. Briefly, fresh overnight cultures of each L. lactis test culture was replicated on GM17/TSBYE agar plates containing 0.1% nisaplin using a 96-pin replicator (Boekel, Feasterville, PA, USA) and incubated overnight at 30 °C before being exposed to ultraviolet radiation for 45 min. The plates were then overlayed with GM17/TYSBYE agar (0.75% agar) and seeded (0.5% inoculum) with either Lactococcus lactis MG1614 (NSR-), the nisin resistance protein-expressing indicator strain L. lactis MG1614 pNP40 (NSR+) or TSBYE agar seeded with Staphylococcus capitis (NSR+) or Streptococcus agalactiae (NSR+) isolates. […]

[3] = cited from earlier work
Source text: NSR degrades nisin by cleaving the pept ...

C=C(NC(=O)[C@@H](NC(=O)[C@H](Cc1c[nH]cn1)NC(=O)[C@@H](NC(=O)[C@@H]1CCCN1C(=O)[C@@H]1CS[C@@H](C)[C@H]2NC(=O)[C@H](C)NC(=O)[C@H](NC(=O)[C@H](CCCCN)NC(=O)[C@H](CCSC)NC(=O)[C@H](CC(N)=O)NC(=O)[C@@H]3CS[C@@H](C)[C@@H](NC(=O)[C@H](CCCCN)NC(=O)[C@@H]4CS[C@@H](C)[C@@H](NC(=O)[C@@H]5CSC[C@@H](NC(=O)/C(=C/C)NC(=O)[C@@H](N)[C@@H](C)CC)C(=O)N[C@@H]([C@@H](C)CC)C(=O)NC(=C)C(=O)N[C@@H](CC(C)C)C(=O)N5)C(=O)N5CCC[C@H]5C(=O)NCC(=O)N4)C(=O)NCC(=O)N[C@@H](C)C(=O)N[C@@H](CC(C)C)C(=O)N[C@@H](CCSC)C(=O)NCC(=O)N3)[C@H](C)SC[C@H](NC2=O)C(=O)N[C@@H](Cc2c[nH]cn2)C(=O)N1)C(C)C)C(C)C)C(=O)N[C@@H](CCCCN)C(=O)O [PV]
time-kill outcome of single treatments (S. capitis AV80): inhibited bacterial growth over 4 h
fold increase in potency compared to nisin A (S. agalactiae strains): 2 fold
fold increase in potency compared to nisin A (S. capitis BA06): 2 fold
susceptibility to proteolytic cleavage by NSR [1]: resist proteolytic cleavage by NSR
fold more active compared to nisin A (S. capitis strains): 2–4 fold
fold decrease in potency compared to nisin A (S. agalactiae CIT 85): 2 fold
MIC (S. capitis AY41; 16 h): 6 * µg/mL
fold increase in potency compared to nisin A (S. capitis AY41; from MIC): 4 fold
bioactivity (zone of inhibition) of the producing strain [2]: improved antimicrobial activity against all strains tested; also recorded: greatest bioactivity against the majority of pathogenic indicators

nisin 1–28: truncated nisin structure left after NSR cleavage (ITSISLCTPGCKTGALMGCNMKTATCHC; ends and bridges not checked; also: lantibiotic thioether rings (Lan/MeLan) and dehydro residues, places not given here; UniProt P13068 24-51, looked up, fragment)
decrease in antimicrobial activity compared to nisin [3]: up to 100 fold
